In patent US20210123066A1, “METHODS OF REGENERATION AND TRANSFORMATION OF STEVIA PLANT AND TRANSGENIC STEVIA PLANTS HAVING ENHANCED STEVIOL GLYCOSIDES CONTENT” (TEMASEK LIFE SCIENCES LABORATORY LIMITED, priority 2018, published 2021):

System: SrUGT76G1
Assay: In vitro UDP-glucosyltransferase activity assay with GST-SrUGT76G1
Type: biochemical, Stevia rebaudiana
Details: for product formed by GST-UGT76G1 from the acceptor (HPLC): 5 mM UDP-glucose, 16 h; for product formed by GST-SrUGT76G1 from the acceptor (TLC): 50 μM substrate, UDP-glucose donor, 30° C., 2 h
Procedure: Expression of recombinant UGT76G1 and UDP-glucosyltransferase activity assay: The full-length cDNA of SrUGT76G1 was cloned into pDEST15 to obtain GST-tag fused protein. The resulting expression vector was transformed into E. Coli BL21 (DE3)-derived Rosetta strain (Novagen) and grown under appropriate antibiotics. GST-tagged SrUGT76G1 recombinant protein was purified by glutathione agarose beads (ThermoFisher Scientific). About 1 μg of recombinant protein was used for enzyme assay with 50 μM of the substrate (dulcoside A or Reb A) in an assay buffer (50 mM HEPES, pH 7.5, 3 mM MgCl2, 10 μg/ml Bovine Serum Albumin). To initiate the reaction, a 1 mM UDP-glucose mixture (997.5 μM UDP-glucose and […] UDP-[^14C]-glucose, 2.78 kBq, Amersham Biosciences) was added. In vitro glucosyltransferase activity assays were performed as described by Richman et al. (2005). The assay was carried out at 30° C. for 2 h and extracted twice with 100 μl of water-saturated 1-butanol. Pooled fractions were dried in a vacuum centrifuge and resuspended in 10 μl water-saturated 1-butanol for thin layer chromatography (TLC) analysis. The TLC was performed with 10 μl of reaction products using chloroform:methanol:water (15:10:2 v/v/v) as the mobile phase on a silica gel-coated TLC plate (Fluka) in a mobile phase saturated glass chamber. SGs standards were run under the same condition. After air-drying, the image on the TLC plate was captured on a storage phosphor screen in a phosphorimager cassette (Bio-Rad) for 2-3 d and visualized on a Typhoon 9200 imager (Amersham Biosciences).
HPLC analysis of in vitro glucosyltransferase activity assay mixture: In vitro glucosyltransferase activity assay was performed as indicated in the TLC analysis, but 5 mM of UDP-glucose was used without UDP-[^14C]-glucose and the incubation time was increased to 16 h. Samples were extracted 3 times with water-saturated 1-butanol and dried completely in a vacuum centrifuge. Dried samples were dissolved in MeOH for UHPLC analysis in accordance with the method mentioned for SGs content analysis.

SMILES	product formed by GST-UGT76G1 from the acceptor (HPLC)	product formed by GST-SrUGT76G1 from the acceptor (TLC)
C=C1C[C@@]23CC[C@H]4[C@@](C)(CCC[C@@]4(C)C(=O)O[C@@H]4O[C@H](CO)[C@@H](O)[C@H](O)[C@H]4O)[C@@H]2CC[C@]1(O[C@@H]1O[C@H](CO)[C@@H](O)[C@H](O[C@@H]2O[C@H](CO)[C@@H](O)[C@H](O)[C@H]2O)[C@H]1O[C@@H]1O[C@H](CO)[C@@H](O)[C@H](O)[C@H]1O)C3 [Reb A, rebaudioside A]	Reb I	
C=C1C[C@@]23CC[C@H]4[C@@](C)(CCC[C@@]4(C)C(=O)O[C@@H]4O[C@H](CO)[C@@H](O)[C@H](O)[C@H]4O)[C@@H]2CC[C@]1(O[C@@H]1O[C@H](CO)[C@@H](O)[C@H](O)[C@H]1O[C@@H]1O[C@@H](C)[C@H](O)[C@@H](O)[C@H]1O)C3 [dulcoside A]	Reb C	Reb C
C=C1C[C@@]23CC[C@H]4[C@@](C)(CCC[C@@]4(C)C(=O)O[C@@H]4O[C@H](CO)[C@@H](O)[C@H](O)[C@H]4O)[C@@H]2CC[C@]1(O[C@@H]1O[C@H](CO)[C@@H](O)[C@H](O)[C@H]1O[C@@H]1O[C@H](CO)[C@@H](O)[C@H](O)[C@H]1O)C3 [stevioside]	Reb A	Reb A
